Experimental data reported in patent publication US11149006B2, “Compounds as neurokinin-1 receptor antagonists and uses thereof” (XW LABORATORIES INC., priority 2018, dated 2021).

Assays:
[1] = test system: cisplatin-induced emesis in ferrets; experiment: Cisplatin-induced acute and delayed emesis in the ferret; type: in vivo; conditions: for reduction of retching+vomiting, entire delayed phase: delayed phase 24-72 h
Experimental: To investigate the anti-emetic potential of Compound I by preventing cisplatin-induced acute and delayed emesis in the ferret. Aprepitant was used as a positive control in this study.
40 castrated male ferrets weighing between 1.2 and 2.3 kg were used, which were obtained from Wuxi Sangosho Biotechnology Co. Ltd. (Wuxi, Jiangsu, China) and housed in groups of 2-3 at 24±1° C. with at 50±5% humidity. Artificial lighting was provided between 06:00 to 18:00 h. Water and dry pelleted cat chow were given ad libitum, unless otherwise stated. All experiments were conducted under license from the Government of the Hong Kong SAR and the Animal Experimentation Ethics Committee, The Chinese University of Hong Kong.
Compound I and aprepitant were supplied by XW Laboratories, Inc, China and were dissolved in distilled water. Cisplatin (Lot #MKBR1947V) was from Sigma-Aldrich, St. Louis, USA, and was dissolved in 0.9% w/v saline adjusted to pH 4 with 0.1N HCl. Doses were expressed as the free base, unless otherwise stated.
On the day of the experiment, groups of ferrets were administered Compound I (0.1, 0.3, 1 mg/kg, p.o.), aprepitant (1 mg/kg, p.o.), or distilled water (vehicle control, 1 mL/kg, p.o.) 2 h before cisplatin (5 mg/kg, i.p.) and then the treatments were continued at 24 h intervals (at 24 and 48 h post cisplatin). Emesis was characterized by rhythmic abdominal contractions that were either associated with the forceful oral expulsion of solid or liquid material from the gastrointestinal tract (i.e., vomiting), or not associated with the passage of material (i.e., retching movements). Consecutive episodes of retching and/or vomiting were considered separate when the animal changed its location in the observation cage, or when the interval between episodes exceeded 5 seconds.
GraphPad Prism 8 (GraphPad Software, La Jolla, Calif., United States) was used to perform statistical comparisons. Animal emesis behaviours like retching and vomiting were analyzed using a one-way analysis of variance followed by Tukey's multiple comparisons tests. The results are expressed as the mean±SEM. In all cases, differences between treatment groups were considered significant when the p value was less than 0.05.

[2] = target: human NK-3 receptor (NK-3/HEK293) (Homo sapiens (Human), UniProt P29371); experiment: NK-3 calcium flux FLIPR antagonist assay; type: cell-based; conditions: for inhibition at 10 µM: HEK293, NK-3, max dose 10000 nM; for IC50: NK-3 FLIPR antagonist mode
Experimental: (§1) The potential antagonist activity of Compound I and IV on human NK-1/2/3 receptor was evaluated by calcium flux FLIPR assay. The results are shown in the following Table 2, while the NK-1 fitting dose-response curves for Compound I and IV are shown in FIGS. 2A and 2B, respectively.
(§2) 1. NK-1, NK-2 and NK-3 Calcium Flux FLIPR assays:
(§3) Materials: Cell Lines: NK-1/HEK293, NK-2/HEK293, NK-3/HEK293. Media: DMEM, Invitrogen (Cat #11960), FBS, Corning (Cat #35-076-CV), G418, Invitrogen (Cat #10131-027), and Blasticidin, Invitrogen (Cat #A11139). Reagent: Fluo-4 Direct, (Invitrogen, Cat #F10471).
(§4) Experimental procedure for NK-1, NK-2 and NK-3 calcium flux FLIPR assay: Perform the assay in the following steps: 1) Cell preparation: thaw each cell (NK-1, NK-2 and NK-3) in 37° C. water bath with gentle shaking, transfer cell suspensions to 50 mL conical tubes and add plating media to 45 mL mark. Count cells using a ViCell for concentration. Re-suspend the cells in the growth media to a concentration of 10×10^5 per mL. Add 20 μL per well of the cell suspension to the 384-well plates (20,000 cells/well). Place the cells at 37° C. 5% CO2 incubator overnight. 2) Calcium Flux FLIPR assay: a) Prepare Probenecid reagent by adding 1 mL FLIPR Assay Buffer to 77 mg probenecid to make 250 mM solution. b) Prepare assay reagent (2×8 μM Fluo-4 Direct™ Loading Buffer): Thaw one vial of Fluo-4 Direct™ crystals, add 10 mL of FLIPR Assay Buffer to the Vial; add 0.2 mL of Probenecid to each 10 mL vial of Fluo-Direct. c) Compounds preparation: The compounds are serially diluted in 100% DMSO 1:3 for 10 pts by Echo. Then dispense 900 nL of compounds to the 384-compound plate. Remove cell plate from incubator and gently dispense 20 μL of 2×Fluo-4 Direct™ to 384 well cell culture plate. Incubate for 50 min at 37° C. 5% CO2 and 10 min at room temperature. Remove cell plate from incubator and place it into FLIPR (Molecular Devices). Place compound plate and tip box into FLIPR. For the dose response curve (DRC) plate: a) Run the Protocol on FLIPRTETRA. b) Transfer 10 μL of assay buffer from 384-well plate to the cell plates. c) Read fluorescence signal. d) Transfer 10 μL of the compounds from the DRC plate to the cell plates. e) Read fluorescence signal. f) Calculate the “Max-Min” starting from Read 90 to Maximum allowed. […] For the compound plate in antagonist test: a) Run the Protocol on FLIPRTETRA. b) Transfer 10 μL of references and compounds from the compound plate to the cell plates. c) Read fluorescence signal. d) Transfer 10 μL of 6×EC80 concentrations of agonist reference compounds to the cell plates. e) Read fluorescence signal. f) For antagonist test, calculate the “Max-Min” starting from Read 90 to Maximum allowed. h) Analyze the data using GraphPad Prism 5.0.

[3] = target: human NK-1 receptor (Homo sapiens (Human), UniProt P25103); experiment: Tag-Lite Tachykinin NK-1 receptor competitive binding assay (TR-FRET); conditions: Tag-Lite NK-1 labeled cells, read-out: IC50 on hNK-1 receptor
Experimental: Human Tachykinin NK-1 receptor binding assay was performed using CisBio's Tag-Lite® Ligand binding assay. The homogeneous binding assay employees the time resolved fluorescence energy transfer (TR-FRET) technology. The potential inhibitory effect of Compound I and V on human NK-1 receptor was evaluated by TagLite® Tachykinin NK-1 receptor binding assay.
1. Tag-Lite® Tachykinin NK-1 receptor binding assay.
Materials: Tag-Lite® Tachykinin NK-1 labeled Cells, Tachykinin NK-1 Receptor red agonist Fluorescent Ligand (10 μMx50 μL), Tag-Lite Buffer (TLB) (5×concentration) (CisBio, Redford, Mass., U.S.A). [Sar9, Met(O2)11]-Substance P-Polypeptides (Tocris, Bristol, UK).
2. Competitive binding (Ki determination): Competitive binding assay measures the dissociation constant, To perform the assay, the compound is titrated into a solution containing a fixed concentration of fluorescent ligand and a fixed amount of cells.
Experimental procedure for competitive binding (Ki determination): Perform CisBio's Tag-Lite® Tachykinin NK-1 binding assay according to manufacturer's protocol. […] Incubate 2 h at room temperature, read the Signal665nm and Signal620nm using Evision. Data analysis was performed by calculating the Ratio following the formula below, the competitive binding data for each compound was analyzed with GraphPad Prism 5.0, and IC50 value was calculated for each compound.

[4] = target: human NK-1 receptor (NK-1/HEK293) (Homo sapiens (Human), UniProt P25103); experiment: NK-1 calcium flux FLIPR antagonist assay; type: cell-based; conditions: for inhibition at 10 µM: HEK293, NK-1, max dose 10000 nM; for IC50: NK-1 FLIPR antagonist mode
Experimental: as §1, §2, §3, §4

[5] = Rat pharmacokinetic study; type: in vivo, male Sprague-Dawley rats; conditions: male, Sprague-Dawley, plasma
Experimental: For rat pharmacokinetic studies, male Sprague-Dawley rats were housed individually and fasted overnight before use. For Compound I and reference compound CP-122721, a single dose was administered to each rat in two groups (n=5/group) via intravenous (i.v.) administration at 4 mg/kg and oral (p.o.) administration of 20 mg/kg, respectively.
The vehicle used for i.v. administration was 10% HP-β-CD. The vehicle used for p.o. administration was 0.5% CMC-Na/0.1% Tween 80 in saline. Blood samples were collected at specified time-points following administration to individual rats within i.v. (pre-dose, 10 min, 0.5 h, 1 h, 2 h, 4 h, 6 h, 8 h, 12 h) and p.o. (pre-dose, 15 min, 0.5 h, 1 h, 2 h, 4 h, 8 h, 12 h, 24 h) group. Blood samples were clotted on ice immediately, plasma samples were then isolated by centrifugation and stored frozen (−80° C.) until further analysis. The concentrations of Compound I and CP-122721 were individually determined by LC/MS/MS assay. Various pharmacokinetic parameters were calculated using Phoenix™ WinNonlin® software. To quantify the bioconversion efficiency of the Compound I and CP-122721 in the circulation system, the bioavailability of Compound I and CP-122721 after p.o. administration was calculated.

[6] = target: human NK-2 receptor (NK-2/HEK293) (Homo sapiens (Human), UniProt P21452); experiment: NK-2 calcium flux FLIPR antagonist assay; type: cell-based; conditions: for inhibition at 10 µM: HEK293, NK-2, max dose 10000 nM; for IC50: NK-2 FLIPR antagonist mode
Experimental: as §1, §2, §3, §4

[7] = 1 mg/kg p.o., day 2 (non-significant)
[8] = 1 mg/kg p.o., entire 72 h observation period

Chain of human NK-3 receptor (NK-3/HEK293) (P29371 whole entry): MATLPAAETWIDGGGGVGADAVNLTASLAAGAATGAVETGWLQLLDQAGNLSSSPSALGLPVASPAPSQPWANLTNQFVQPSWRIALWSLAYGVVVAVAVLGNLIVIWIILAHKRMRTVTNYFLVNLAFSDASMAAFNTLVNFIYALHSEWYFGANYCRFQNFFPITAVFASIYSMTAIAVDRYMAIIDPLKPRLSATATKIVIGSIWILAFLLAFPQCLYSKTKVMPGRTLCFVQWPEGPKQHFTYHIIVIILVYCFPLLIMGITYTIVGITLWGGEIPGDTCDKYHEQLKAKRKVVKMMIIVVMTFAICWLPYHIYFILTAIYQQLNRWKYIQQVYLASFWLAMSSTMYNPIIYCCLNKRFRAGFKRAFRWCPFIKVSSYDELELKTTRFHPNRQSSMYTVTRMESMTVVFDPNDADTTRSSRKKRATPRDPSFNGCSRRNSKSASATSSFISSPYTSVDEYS
Chain of human NK-1 receptor (NK-1/HEK293) (P25103 whole entry): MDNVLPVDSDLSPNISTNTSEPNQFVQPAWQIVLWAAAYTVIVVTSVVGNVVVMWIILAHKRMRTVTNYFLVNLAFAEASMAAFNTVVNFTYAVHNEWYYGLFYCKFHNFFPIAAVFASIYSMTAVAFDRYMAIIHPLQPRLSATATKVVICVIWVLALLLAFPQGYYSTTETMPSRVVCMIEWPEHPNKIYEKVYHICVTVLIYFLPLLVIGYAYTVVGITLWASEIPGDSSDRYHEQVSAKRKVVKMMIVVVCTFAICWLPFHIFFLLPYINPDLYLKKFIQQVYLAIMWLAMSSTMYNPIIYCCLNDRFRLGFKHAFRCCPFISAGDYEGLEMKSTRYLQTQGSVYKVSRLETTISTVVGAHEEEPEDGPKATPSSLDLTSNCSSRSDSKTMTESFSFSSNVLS
Chain of human NK-2 receptor (NK-2/HEK293) (P21452 whole entry): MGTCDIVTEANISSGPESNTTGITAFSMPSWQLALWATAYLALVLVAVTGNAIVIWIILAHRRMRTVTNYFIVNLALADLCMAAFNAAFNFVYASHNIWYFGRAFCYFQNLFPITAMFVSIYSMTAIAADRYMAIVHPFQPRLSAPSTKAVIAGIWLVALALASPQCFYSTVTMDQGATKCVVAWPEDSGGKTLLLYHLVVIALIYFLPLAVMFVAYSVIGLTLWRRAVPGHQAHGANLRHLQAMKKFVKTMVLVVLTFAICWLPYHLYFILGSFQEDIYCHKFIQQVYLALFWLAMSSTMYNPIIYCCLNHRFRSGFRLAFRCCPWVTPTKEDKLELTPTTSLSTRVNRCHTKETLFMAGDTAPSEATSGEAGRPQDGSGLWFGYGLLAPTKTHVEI
Chain of human NK-1 receptor (P25103 whole entry): as the sequence (P25103 whole entry) above

Row | Compound | reduction of retches+vomits, overall combined acute and delayed response ([1]; 1 mg/kg p.o., 0-72 h) [%] | reduction of retching+vomiting response ([1]; 1 mg/kg p.o., day 1 (acute)) [%] | reduction of retching+vomiting response [1, 7] [%] | reduction of retching+vomiting response ([1]; 1 mg/kg p.o., day 3) [%] | reduction of retching+vomiting, entire delayed phase ([1]; 1 mg/kg p.o.) [%] | reduction of total number of episodes [1, 8] [%] | reduction of total number of retches [1, 8] [%] | reduction of total number of vomits [1, 8] [%] | inhibition at 10 µM [2] [%] | IC50 [2] [nM] | inhibition at 10 µM [4] [%] | IC50 [4] [nM] | inhibition at 10 µM [6] [%] | IC50 [6] [nM] | other results
1 | COc1ccc(S(F)(F)(F)(F)F)cc1CN[C@H]1CCCN[C@H]1c1ccccc1 [Compound I, (2S,3S)—N-(2-methoxy-5-(pentafluorosulfanyl)benzyl)-2-phenylpiperidin-3-amine] | 52.2 | 64.5 | 22.7 | 67.5 | 41.3 | 59.0 | 51.3 | 57.3 | 26 | > 10000 | 102 | 6.15 | 15 | > 10000 | reduction of retches+vomits, overall combined acute and delayed response ([1]; 0.1 mg/kg p.o., 0-72 h): 23.9%; reduction of retches ([1]; 0.1 mg/kg p.o., entire 72 h observation period): 21.9%; IC50 [3]: 0.64 nM; AUC(0-t) ([5]; iv, 4 mg/kg): 663 ng·h/mL; half-life ([5]; iv, 4 mg/kg): 1.84 h; bioavailability ([5]; oral, p.o. 20 mg/kg vs i.v. 4 mg/kg): 22.4%; AUC(0-t) ([5]; po, 20 mg/kg): 740 ng·h/mL; Cmax ([5]; po, 20 mg/kg): 202 ng/mL; Tmax ([5]; po, 20 mg/kg): 1.4 h; half-life ([5]; po, 20 mg/kg): 1.9 h
2 | C[C@@H](O[C@H]1OCCN(Cc2n[nH]c(=O)[nH]2)[C@H]1c1ccc(F)cc1)c1cc(C(F)(F)F)cc(C(F)(F)F)c1 [aprepitant, reference compound] | 67.4 | 76.5 | 46.7 | 73.3 | 59.4 | 64.0 | 67.9 | 64.6 | – | – | – | – | – | – | superiority in reduction of retches+vomits over Compound I 0.1 mg/kg ([1]; aprepitant 1 mg/kg p.o. vs Compound I 0.1 mg/kg, 0-72 h): 43.5%; superiority in reduction of retches over Compound I 0.1 mg/kg ([1]; aprepitant 1 mg/kg p.o. vs Compound I 0.1 mg/kg, 72 h): 46%
3 | [2H]C([2H])([2H])Oc1ccc(S(F)(F)(F)(F)F)cc1CN[C@H]1CCCN[C@H]1c1ccccc1 [Compound IV, (2S,3S)—N-(2-(methoxy-d3)-5-(pentafluorosulfanyl)benzyl)-2-phenylpiperidin-3-amine] | – | – | – | – | – | – | – | – | 29 | > 10000 | 101 | 22.2 | 1 | > 10000 | –
